The values below come from US10117943B2, “Synthetic antibody mimetic compounds (SYAMS) targeting cancer, especially prostate cancer” (YALE UNIVERSITY, priority 2013, dated 2018).

Holding throughout (type): cell-based
The subject of assay [1] is PSMA coated beads. The assay is described as follows: Molecule induced phagocytosis of PSMA coated beads by IFN-γ primed U937 cells. The conditions noted are these: for Observed % Phagocytosis (50 nM SyAM-P2): beads; for phagocytosis of PSMA coated beads (comparison in words): compared with the previous generation SyAM-P. As to the method: (§1) Three days before the experiments, a plate of U937 cells (approximately 60% confluent) was passed into a new Petri dish (10 mL colored RPMI growth media total volume). IFN-γ (20 μL, 100 μg/mL in DPBS) was added, and the cells were maintained in an incubator (37° C., 24 h). The cells were pelleted after 24 hours and resuspended in 10 mL of IFN-γ (20 uL, 100 ug/mL in DPBS) and maintained in an incubator (37° C., 24 h)
For phagocytosis: cells were transferred into a Falcon tube, and DiD (19 uL, final concentration=1.9 μM) was added. The cells were maintained in an incubator (37° C., 30 min), pelleted, aspirated, resuspended in RPMI growth media (10 mL), and split equally into two Petri dishes. To each dish were added additional colored RPMI growth media (5 mL) and IFN-γ (20 μL, 100 μg/mL in DPBS), and maintained in an incubator (37° C., 24 h).
[…] streptavidin fluoresbrite YG microspheres from Polysciences were incubated with 4× concentration of avi-tagged PSMA for 30 minutes at room temperature in DPBS (concentration of avi-tagged PSMA is dependent on biotin loading capacity of microspheres). Beads were washed with DPBS 2× and resuspended in color-free ADCP media at 1.6 million beads/mL.
Phagocytosis: 25 uL of bead solution was added to 25 uL of ADCP media either with or without molecules at various concentrations in an eppendorf tube. To this 50 uL of 4 million/mL primed U937 cells were added, gently mixed and then centrifuged at […] for 2 minutes. The caps were opened and placed in an incubator (37° C., 1 hr) at which point the eppendorfs were closed and placed on ice. Samples were vortexed and run on an Accuri C6 flow cytometer for a total of 50 k counts.
Data analysis: For each experiment 50,000 events were counted. Forward and side scatter plots were optimally gated to remove debris particles and cellular aggregates. On a plot of FL-2 vs FL-4 the following populations were counted: […]

The test system of assay [2] is RM1.PGLS cells. The assay is described as follows: Superoxide burst (lucigenin) by primed U937 cells against RM1.PGLS cells. The conditions noted are these: IFN-γ primed U937 effectors. From the text: Since SyAM-P1 was able to induce effector-cell mediated responses against target protein coated beads, the inventors then evaluated if the molecule can elicit the effects against PSMA expressing cells. To that end, the inventors evaluated the SyAM-P1 induced immune responses by primed U937 effector cells against PSMA expressing RM1.PGLS cells. They tested the U937-mediated immune effects by evaluating both superoxide burst and phagocytosis of effector cells, analogous to the protein coated bead experiments. In this experiment, IFN-γ primed U937 cells were incubated with PSMA expressing RM1.PGLS cells, and treated with various concentrations of SyAM-P1. The resulting superoxide burst response was measured using the lucigenin assay (data not shown). Additionally, primed U937 cells (stained with DiD, an FL4 membrane dye) were incubated with target RM1.PGLS cells (stained with […], an FL1 membrane dye), in the presence of various concentrations of SyAM-P 1. The resulting phagocytosis—indicated by FL1 and FL4 double positive cells—was measured using two-color flow-cytometry. As a positive control, ARM-P8 combined with anti-DNP antibodies was utilized. […] The positive response seen with the Arm-P8 control, could potentially be attributed to the ability of antibodies to ligate both FcγRI and FcγRIIA on the immune effector cells, increasing immune signaling and phagocytic responses.

Assay [3] deals with RM1.PGLS cells. The assay is described as follows: Phagocytosis of PSMA expressing RM1.PGLS cells by IFN-γ primed U937 cells. The conditions noted are these: for phagocytosis of RM1.PGLS cells (in words): IFN-γ primed U937 effectors. As to the method: Target cell passing: Three days before the experiments, a plate of target cells, RM1.PGLS cells were passed into a new flask.
Effector cell priming: Three days before the experiments, a plate of U937 cells (approximately 60% confluent) was passed into a new Petri dish (10 mL colored ADCP media total volume). IFN-γ (20 μL, 100 μg/mL in DPBS) was added, and the cells were maintained in an incubator (37° C., 24 h). The cells were transferred into a Falcon tube, and DiD (19 uL, final concentration=1.9 μM) was added. The cells were maintained in an incubator (37° C., 30 min), pelleted, aspirated, resuspended in colored ADCP media (10 mL), and split equally into two Petri dishes. To each dish were added additional colored ADCP media (5 mL) and IFN-γ (20 μL, 100 μg/mL in DPBS), and the cells were maintained in an incubator (37° C., 24 h).
Target cell preparation: To a plate of target cells (60-80% confluent RM1.PGLS cells 10 mL total media volume) was added DiO (20 μL, final concentration=2 μM). The cells were maintained in an incubator (37° C., 30 min), aspirated, and washed with colored ADCP media (3×10 mL). Colored ADCP media (10 mL) was added. The cells were maintained in an incubator (37° C., 2 h), detached and resuspended in color-free ADCP media at a concentration of 0.5 million cells per mL.
Effector cell preparation: Both dishes of primed U937 cells were transferred into a Falcon tube, pelleted, aspirated, resuspended in color-free ADCP media (10 mL), counted, and diluted with color-free ADCP media to give a final concentration of 2 million cells per mL.
Phagocytosis: All conditions were run in triplicate. For each experiment, into a sterile 2 mL Eppendorf tube were added color-free ADCP media (25 μL) containing either various concentrations of SyAM-Px or ARM-P8/Anti-DNP antibody, target cells (25 μL=12,500 cells), and effector cells (50 μL=100,000 cells), to give an effector-to-target ratio of 8:1. Tubes were gently agitated by hand. The cells were pelleted (2 min, 1100 rpm). The tubes were opened, maintained in an incubator (37° C., 1 h), resuspended by briefly agitating with a vortex, and analyzed by flow cytometry.

Assay [4] relates to PSMA coated beads. Put plainly: ROS production (superoxide burst, lucigenin) by primed U937 cells against PSMA coated beads. As to the method: as §1
For ROS production cells were resuspended in RPMI growth media (10 mL), and split equally into two Petri dishes. To each dish were added additional colored RPMI growth media (5 mL) and IFN-γ (20 μL, 100 μg/mL in DPBS), and maintained in an incubator (37° C., 24 h)
Primed U937 were suspended in color-free ADCP media at a concentration of 3×10^5 U937 cells and mixed with 10^5 PSMA coated beads and various concentrations of molecules in a 96 well plate in a volume of 90 uL. To each well was added 10 μl of 2.5 mM lucigenin (Tokyo Chemicals) solution to bring the total volume to 100 μl. The plate was centrifuged at 200 rcf for 2 minutes (PLATE SPINNER). The chemiluminescence was then measured at two minute intervals by plate reader (Biotek Synergy 2) for 60 to 90 minutes.

As to `CC(=O)N[C@H](C(=O)N[C@@H](CC(N)=O)C(=O)N[C@@H](CO)C(=O)N[C@H]1CSSC[C@@H](C(=O)NCC(=O)N[C@@H](CC(=O)O)C(=O)N[C@@H](CC(=O)O)C(=O)N[C@@H](C)C(=O)N[C@@H](CCCCNC(=O)CCCCc2cn(-c3cc(C(=O)NCCCCCC(=O)NCCCCCC(=O)NCCCCCC(=O)NCCCCCC(=O)NCCCCCC(=O)NCCCCCC(=O)NCc4cn(CCCC[C@H](NC(=O)N[C@@H](CCC(=O)O)C(=O)O)C(=O)O)nn4)cc(C(=O)NCCCCCC(=O)NCCCCCC(=O)NCCCCCC(=O)NCCCCCC(=O)NCCCCCC(=O)NCCCCCC(=O)NCc4cn(CCCC[C@H](NC(=O)N[C@@H](CCC(=O)O)C(=O)O)C(=O)O)nn4)c3)nn2)C(=O)N[C@@H](CCCCNC(=O)CCCC[C@@H]2SC[C@@H]3NC(=O)N[C@@H]32)C(N)=O)NC(=O)CNC(=O)[C@H](CC(C)C)NC(=O)[C@H](CC(C)C)NC(=O)[C@H](CC(N)=O)NC(=O)[C@@H]2CCCN2C(=O)[C@H](CC(C)C)NC(=O)[C@H](CC(C)C)NC(=O)[C@H](CC(C)C)NC1=O)C(C)C` [SyAM-P2], the “Observed % Phagocytosis (50 nM SyAM-P2)” value in the assay on PSMA coated beads [1] (labeling 2.9 pmol/bead, calculated 1972 PSMA/um^2) is reported as 10.1%; with PSMA coated beads [1] (labeling 5.7 pmol/bead, calculated 3876 PSMA/um^2), 24.0%; in the assay with PSMA coated beads [1] (labeling 8.2 pmol/bead, measured 5577 PSMA/um^2), 46.2%; with RM1.PGLS cells [3] (target RM1.PGLS cells, measured 918 PSMA/um^2, 50 nM), 0%. Besides, the “phagocytosis of PSMA coated beads (comparison in words)” value in the assay with PSMA coated beads [1] is given as “much higher level of phagocytosis”. In addition, the “superoxide burst against RM1.PGLS cells (in words)” value with RM1.PGLS cells [2] is “no response”. Also, the “phagocytosis of RM1.PGLS cells (in words)” value in the assay with RM1.PGLS cells [3] is listed as “no response”.

Turning to `CC(=O)N[C@H](C(=O)N[C@@H](CC(N)=O)C(=O)N[C@@H](CO)C(=O)N[C@H]1CSSC[C@@H](C(=O)NCC(=O)N[C@@H](CC(=O)O)C(=O)N[C@@H](CC(=O)O)C(=O)N[C@@H](CCCCNC(=O)CCCC(=O)NCCOCCOCCOCC(=O)NCCCC[C@H](NC(=O)COCCOCCOCCNC(=O)CCCC(=O)NCCCC[C@H](NC(=O)[C@H](CC(=O)O)NC(=O)[C@H](CC(=O)O)NC(=O)CNC(=O)[C@@H]2CSSC[C@H](NC(=O)[C@H](CO)NC(=O)[C@H](CC(N)=O)NC(=O)[C@@H](NC(C)=O)C(C)C)C(=O)N[C@@H](CC(C)C)C(=O)N[C@@H](CC(C)C)C(=O)N[C@@H](CC(C)C)C(=O)N3CCC[C@H]3C(=O)N[C@@H](CC(N)=O)C(=O)N[C@@H](CC(C)C)C(=O)N[C@@H](CC(C)C)C(=O)NCC(=O)N2)C(=O)N[C@@H](CCCCNC(=O)CCCC[C@@H]2SC[C@@H]3NC(=O)N[C@@H]32)C(N)=O)C(=O)NCc2cn(-c3cc(C(=O)NCCCCCC(=O)NCCCCCC(=O)NCCCCCC(=O)NCCCCCC(=O)NCCCCCC(=O)NCCCCCC(=O)NCc4cn(CCCC[C@H](NC(=O)N[C@@H](CCC(=O)O)C(=O)O)C(=O)O)nn4)cc(C(=O)NCCCCCC(=O)NCCCCCC(=O)NCCCCCC(=O)NCCCCCC(=O)NCCCCCC(=O)NCCCCCC(=O)NCc4cn(CCCC[C@H](NC(=O)N[C@@H](CCC(=O)O)C(=O)O)C(=O)O)nn4)c3)nn2)C(=O)N[C@@H](CCCCNC(=O)CCCC[C@@H]2SC[C@@H]3NC(=O)N[C@@H]32)C(N)=O)NC(=O)CNC(=O)[C@H](CC(C)C)NC(=O)[C@H](CC(C)C)NC(=O)[C@H](CC(N)=O)NC(=O)[C@@H]2CCCN2C(=O)[C@H](CC(C)C)NC(=O)[C@H](CC(C)C)NC(=O)[C@H](CC(C)C)NC1=O)C(C)C` [SyAM-P3], the “phagocytosis of PSMA coated beads (comparison in words)” value in the assay with PSMA coated beads [1] is “much greater immune response”. The “superoxide burst against RM1.PGLS cells (in words)” value in the assay on RM1.PGLS cells [2] is “No response”. Besides, in the assay with RM1.PGLS cells [3], the “phagocytosis of RM1.PGLS cells (in words)” value is listed as “effectively induce U937-mediated phagocytosis, in a dose dependent manner”. Moreover, the “concentration of peak phagocytosis response” value in the assay on RM1.PGLS cells [3] (RM1.PGLS cells) is 10 nM. Besides, the “phagocytosis of RM1.PGLS cells compared with ArmP8 plus anti-DNP antibody” value with RM1.PGLS cells [3] (anti-DNP antibody 133 nM, background subtracted) was “phagocytosis at significantly less concentration than for ArmP8”. In the assay with PSMA coated beads [4] (SyAM-P3 alone, various concentrations), the “superoxide production without target PSMA+ beads” value is “little to no background superoxide detection”. Moreover, the “superoxide burst against PSMA coated beads (comparison in words)” value in the assay with PSMA coated beads [4] (compared with SyAM-P2) is given as “much greater immune response”.

For the compound `O=C(O)CCC(CP(=O)(O)O)C(=O)O` (centres unmarked) [2-PMPA, reference compound], in the assay with PSMA coated beads [1] (50 nM SyAM-P3, increasing inhibitor concentrations), the “inhibition of SyAM-P3 induced phagocytosis of PSMA coated beads” value is “inhibition of phagocytosis”. The “effect of inhibitor on SyAM-P1 induced immune effector responses (superoxide burst, phagocytosis of beads)” value with PSMA coated beads [1] (data not shown) is “abrogated”. Also, the “inhibition of SyAM-P3 induced phagocytosis of RM1.PGLS cells” value in the assay with RM1.PGLS cells [3] (6.25 nM SyAM-P3, increasing inhibitor concentrations) was “inhibition of phagocytosis”.
